From US20050282863A1, “Novel-N substituted dihydrobenzothiepino, dihydrobenzoxepino and tetrahydro benzocyclohepta indoles as selective estrogen receptor modulators” (Council of Scientific & Industrial Research, priority 2004, published 2005)
Where two headings read alike, the source gives them in different places.

How the values were obtained:
estrogen receptors = target: T1, estrogen receptors (Rattus norvegicus, UniProt P06211); assay: Relative binding affinity (RBA) to estrogen receptors, 3H-estradiol competition assay; design: key: % of 17-beta-estradiol binding affinity (estradiol = 100); conditions: relative to 17-beta-estradiol (=100, percentage value); rat uterine cytosol, 3H-E2, 18 hrs at 4° C.
T1 construct: Aliquot of uterine cytosol (200 μl; 2 uteri per ml) prepared in TEA buffer; from tissue; host or cells: uterine cytosol of immature estradiol-primed 20-21 day old rats
T1 sequence (P06211 1-600): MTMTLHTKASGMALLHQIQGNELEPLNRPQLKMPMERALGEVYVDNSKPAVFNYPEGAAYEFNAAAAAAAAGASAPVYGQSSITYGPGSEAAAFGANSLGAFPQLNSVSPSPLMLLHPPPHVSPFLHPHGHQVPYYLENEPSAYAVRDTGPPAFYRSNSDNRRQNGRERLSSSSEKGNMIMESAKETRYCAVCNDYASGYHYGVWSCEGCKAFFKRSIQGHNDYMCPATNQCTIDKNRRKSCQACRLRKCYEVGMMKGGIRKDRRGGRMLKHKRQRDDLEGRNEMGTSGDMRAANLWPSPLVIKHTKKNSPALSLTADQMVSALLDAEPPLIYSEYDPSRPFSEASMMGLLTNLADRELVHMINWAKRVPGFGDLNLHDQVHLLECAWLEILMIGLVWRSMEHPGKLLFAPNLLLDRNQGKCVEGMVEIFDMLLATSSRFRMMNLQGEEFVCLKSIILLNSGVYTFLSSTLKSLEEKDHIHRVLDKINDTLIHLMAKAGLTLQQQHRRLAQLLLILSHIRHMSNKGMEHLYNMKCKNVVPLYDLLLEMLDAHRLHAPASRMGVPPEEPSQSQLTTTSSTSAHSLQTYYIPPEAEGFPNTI
Procedure: The relative binding affinity (RBA) of the compounds for estrogen receptor is determined by competition assay, employing ^3H-estradiol (^3H-E2) as the radioligand. The test ligands and ^3H-E2 are incubated at 4° C. with cystol estrogen receptors obtained from uteri of immature estradoil-primed (1 μg/rat 24 h before autopsy) 20-21 days old rats. Aliquot of uterine cytosol (200 μl; 2 uteri per ml) prepared in TEA buffer (10 mM Tris, 1.5 mM EDTA, 0.02% sodium azide, pH 7.4) are incubated in duplicate with a fixed concentration of ^3H-E2 in the absence or presence of various concentrations of the competitor substance dissolved in 30 μl of the TEA buffer containing DMF as co-solvent (final concentration of DMF in the incubation mixture never exceeded 5%) for 18 hrs at 4° C. At the end of this period, dextran coated charcoal (5% Norit 0.5% dextran) suspension in 100 μl of TEA buffer is added to each tube, briefly vortexed and allowed to stand for 15 minutes at 4° C. The mixture is centrifuged at 800 g for 10 minutes and the supernatants counted for radioactivity in 10 ml of a dioxane-based scintillation fluid. RBA of the text compound is computed from a graph plotted between percent bound radioactivity verses log concentration of the test substance. […] This when multiplied with 100 gives the percentage value designated as RBA.

adult female rats = assay: Post-coital antifertility efficacy in adult female rats; type: in vivo, rat; conditions: oral; for responders at 10 mg/kg: Rattus norvegicus, 240 h
Excerpt: Adult female rats are caged overnight with coeval males of proven fertility and their vaginal smears are checked on the following morning. The day of presence of spermatozoa in the vaginal smear is taken as day 1 of pregnancy. Mated rats are isolated and randomized into various treatment groups and treated orally with the compound of invention or the vehicle on days 1-7/1-5 post-coitum. Animals of all the groups are autopsied on day 10 post-coitum and number and status of corpora lutea and implantation sites in each rat are recorded. The compounds of the present invention are considered active if there is complete absence of implantations in the uterus of all rats, in comparison to presence of normal implantations in the uterus of rats of vehicle control group.

MCF-7 cells = assay: Antiproliferative/cytotoxic activity in cultured MCF-7 cells (SRB assay); type: cell-based; conditions: Homo sapiens, MCF7, 48 h, MCF-7, 48 h
Procedure: The procedure is based on the following methods: New calorimetric assay for anticancer drug screening, Skehan et al., J Natn Cancer Inst, 82,1107, 1990 and Feasibility of a high-flux anticancer drug screen using a diverse panel of cultured human tumor cell lines, J Natn Cancer Inst, 83,757, 1991.
A fully confluent flask of MCF-7 cells in trypsinized and 10^4 cells/well are plated in a 96 welled flat bottomed plate in 200 μl Minimum Essential Medium (MEM), pH 7.4 and allowed to attach for 24 h at 37° C. in a humidified CO2 incubator. Subsequently, the compound of invention dissolved in DMSO or ethanol is added at a specified concentration and further incubated for 48 h as before. The cells are then fixed in 50 μl cold 50% TCA and incubated for 1 h at 4° C. The supernatant is discarded and the plate is washed five times with deionized water and air-dried. 100 μl of 0.4% (w/v) Sulforhodamine B (SRB) in 1% acetic acid is added to each well and incubated at room temperature for 30 minutes. Unbound SRB is removed by five washes with chilled 1% acetic acid and the plate is air-dried. 200 μl of unbuffered 10 mM Tris base is added to solublize the bound stain for 5 minutes at room temperature and O.D. is read at 560 nm in a plate reader. The graph is plotted between O.D. and concentration and LC50 is calculated with respect to tamoxifen, which is used as a positive control.

[1] = test system: chick fetal bones in culture; assay: Inhibition in PTH-induced resorption of 45Ca from chick fetal bones in culture (antiresorptive activity in vitro); type: cell-based; conditions: Gallus gallus, 96 h, 100 μM; PTH-induced 45Ca resorption, 96 h culture; read-out: T/C ratio
Procedure: 5 μl of each concentration are used for evaluation of antiresorptive activity in vitro. In control experiments, 5 μl of appropriate solvent is used in lieu of the test compound. Femur bones are isolated from chick embryos on day 11 post-ovulation. The adhering soft connective tissue is completely removed. Each femur bone is then placed in a drop of phosphate buffered saline (PBS) and is transferred to BGJb culture medium containing ^45CaCl2 and incubated for 2 h. Labeled femur bones are washed 2-3 times with PBS and transferred to BGJb medium containing parathyroid hormone and cultured for 96 h in the presence or absence of the compound of invention or the vehicle in BGJb medium. Contralateral femur of each fetus serves as corresponding control. Culture medium with the respective treatment in each well is changed after 48 h. On termination of the culture at 96 h, bones are transferred to 0.1 N HCl for 24 h. Radioactivity due to ^45Ca in the spent medium collected at 48 and 96 h of culture and HCl extract at 96 h of culture is quantified by Liquid Scintillation Spectrophotometer in 10 ml of the scintillation fluid. Bone resorbing activity is expressed as percentage of ^45Ca released into the culture medium and the effect of the compound of invention as percent of the corresponding contra-lateral control or T/C ratio as shown below: [formula]
Appropriate solvents are selected from solvents like water, physiological saline, phosphate buffered saline, phosphate buffer, DMSO alone or in a suitable combination thereof.

[2] = test system: immature ovariectomized rats; assay: Estrogen antagonistic activity: inhibition in 17α-ethynylestradiol induced uterine weight gain in immature ovariectomized rats; type: in vivo, rat; conditions: daily dose 10 mg/kg with 0.02 mg/kg 17-alfa-ethynylestradiol, 3 days; for inhibition in vivo at 10 mg/kg/day: Rattus norvegicus, 72 h, read-out: Percent inhibition in 17α-ethynylestradiol induced uterine weight gain
Procedure: Twenty-one-day-old immature female rats are bilaterally ovariectomized under light ether anaesthesia and after post-operative rest for 7 days, are randomized into different treatment groups. Each rat receives the compounds of the invention and 0.02 mg/kg dose of 17-alfa-ethynylestradiol in 10% ethanol-distilled water once daily for 3 consecutive days on days 28-30 of age. A separate group of animals receiving only 17-alfa-ethynylestradiol (0.02 mg/kg) in 10% ethanol-distilled water for similar duration are used for comparison. At autopsy on day 31 of age, vaginal smear of each rat is taken and uterus is carefully excised, gently blotted, weighed and fixed for histology and histomorphometry using image analysis. Inhibition in 17-alfa-ethynylestradiol-induced premature opening of vagina, cornification of vaginal epithelium, increase in uterine fresh weight, total uterine and endometrial area and uterine luminal epithelial cell height are taken as parameters for evaluation of estrogen antagonistic activity.

[3] = test system: immature ovariectomized rats; assay: Estrogen agonistic activity: increase in uterine weight in immature ovariectomized rats; type: in vivo, rat; conditions: 3 days, percent of ovariectomized + vehicle group; for change in vivo at 10 mg/kg / change in vivo at 3 mg/kg: Rattus norvegicus, 72 h; for change in vivo at 3 mg/kg: daily dose 3 mg/kg
Procedure: Twenty-one-day-old immature female rats are bilaterally ovariectomized under light ether anaesthesia and, after post-operative rest for 7 days, are randomized into different treatment groups. Each rat receives the compound of the invention once daily for 3 consecutive days on days 28-30 of age. A separate group of animals receiving only the vehicle for similar duration serves as control. A autopsy 24 h after the last treatment on day 31 of age, vaginal smear of each rat is taken and uterus is carefully exised, gently blotted, weighed and fixed for histology and histomorphometry using image analysis. Premature opening of vagina, cornification of vaginal epitelium, increase in uterine fresh weight, total uterine and endometrial area and uterine luminal epithelial cell height are taken as parameters for evaluation of estrogen agonistic activity in comparision to rats of vehicle control group.

[4] = daily dose 10 mg/kg, days 1-7 post-coitum

Structure (SMILES)	RBA (estrogen receptors)	% Efficacy (adult female rats; [4])	CC50 (MCF-7 cells; read-out: LC50, Test-4)	activity at 100 µM [1]	inhibition in vivo at 10 mg/kg/day [2]	change in vivo at 10 mg/kg ([3]; daily dose 10 mg/kg)	further results
Oc1ccc2c(c1)SCCc1c-2n(CCCCCN2CCCCC2)c2ccccc12 [Example number 24, 3-Hydroxy-12-[5-(piperidine-1-yl)pentyl]-6,7-dihydro-12H-benzothiepino [5,4-b]indole]	10.75	Inactive	27 µM	78%	–	–	–
c1ccc2c(c1)SCCc1c-2n(Cc2ccc(OCCN3CCCCC3)cc2)c2ccccc12 [Example number 39, 12-[4-(2-Piperidin-1-yl-ethoxy)benzyl]-6,7-dihydro-12H-benzothiepino [5,4-b]indole]	–	Inactive	–	85%	3.7%	83.3%	–
Oc1ccc2c(c1)SCCc1c-2n(CCCCCN2CCCCC2)c2ccc(O)cc12 [Example number 35, 3,9-Dihydroxy-12-[5-(piperidine-1-yl)pentyl]-6,7-dihydro-12H-benzothiepino [5,4-b]indole]	<0.001	Inactive	40 µM	99%	–	–	–
c1ccc2c(c1)SCCc1c-2n(CCCCCN2CCCCC2)c2ccccc12 [Example number 11, 12-[5-(Piperidine-1-yl)pentyl]-6,7-dihydro-12H-benzothiepino [5,4-b]indole]	–	–	8.3 µM	77%	2%	50%	responders at 10 mg/kg (adult female rats; [4]): 50%
c1ccc2c(c1)OCCc1c-2n(CCCCCN2CCCCC2)c2ccccc12 [Example number 49, 12-[5-(Piperidine-1-yl)pentyl]-6,7-dihydro-12H-benzoxepino[5,4-b]indole]	–	–	–	63%	–	–	responders at 10 mg/kg (adult female rats; [4]): 100%; % Efficacy (adult female rats; daily dose 5 mg/kg, days 1-5 post-coitum): Inactive
c1ccc2c(c1)OCCc1c-2n(Cc2ccc(OCCN3CCCCC3)cc2)c2ccccc12 [Example number 56, 12-[4-(2-Piperidin-1-yl-ethoxy)benzyl]-6,7-dihydro-12H-benzoxepino[5,4-b]indole]	–	Inactive	–	103%	12.8%	15.4%	–
Oc1ccc2c(c1)SCCc1c-2n(CCCCCN2CCCC2)c2ccc(O)cc12 [Example number 36, 3,9-Dihydroxy-12-[5-(pyrrolidine-1-yl)pentyl]-6,7-dihydro-12H-benzothiepino [5,4-b]indole]	<0.001	–	60 µM	118%	–	–	–
c1ccc2c(c1)SCCc1c-2n(CCCCCN2CCCC2)c2ccccc12 [Example number 12, 12-[5-(Pyrrolidine-1-yl)pentyl]-6,7-dihydro-12H-benzothiepino [5,4-b]indole]	0.88	Inactive	–	78%	–	–	CC50 (MCF-7 cells; read-out: LC50, Test-1): 63 µM; change in vivo at 3 mg/kg [3]: 3.4%
c1ccc2c(c1)OCCc1c-2n(CCCCCCN2CCCCC2)c2ccccc12 [Example number 51, 12-[6-(Piperidine-1-yl)hexyl]-6,7-dihydro-12H-benzoxepino[5,4-b]indole]	0.059	Inactive	–	–	14%	20%	CC50 (MCF-7 cells; read-out: LC50, Test-1): 22.3 µM; CC50 (MCF-7 cells; read-out: LC50, Test-3): 12.8 µM; change in vivo at 3 mg/kg [3]: 21.9%
CCCCN(C)CCCCCn1c2c(c3ccccc31)CCSc1ccccc1-2.O=C(O)/C=C/C(=O)O [Example number 16, 12-[5-(N-butylmethylamino)pentyl]-6,7-dihydro-12H-benzothiepino [5,4-b]indole fumaric acid Salt]	<0.001	–	–	–	–	–	Percent inhibition in 17α-ethynylestradiol induced uterine weight gain [2]: 2.00%; Percent increase in uterine weight ([3]; daily dose 10 mg/kg): 2.00%
